Among the data in PubChem BioAssay (NCI) are GI50 and TGI values, retold here.

Values joined by “and” are separate entries in the source; they are usually repeats but may differ in a detail not shown here. Equal values may be shown once.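 Following 48 hours of exposure in 96-well plates, responses at five concentrations were used to interpolate endpoints linearly. Abbreviation: GI50, concentration required for 50% inhibition of growth. TGI: total growth inhibition.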

Among the test systems are 786-0 renal; HCT-116 colon; HOP-62 NSCLC; IGROV1 ovarian; K-562 leukemia; LOX IMVI melanoma; NCI-H522 lung; RPMI-8226 leukemia; SR leukemia; UACC-62 melanoma.
What all share (test): DTP human tumour cell line panel, 48 h

`COc1cccc(C2CC(=O)Nc3cc4c(cc32)CCC4)c1OC` (centres undefined): the GI50 is 4.84 µM in the assay on 786-0 renal; 3.61 µM with HCT-116 colon; 5.97 µM in the assay on HOP-62 NSCLC; 6.49 µM in the assay with IGROV1 ovarian; 3.07 µM in the assay on K-562 leukemia; 4.26 µM in the assay with LOX IMVI melanoma. Also, the GI50 was 3.67 µM in the assay on NCI-H522 lung, 2.63 µM in the assay with RPMI-8226 leukemia, 2.87 µM in the assay with SR leukemia and 2.9 µM in the assay with UACC-62 melanoma. Moreover, the TGI in the assay on 786-0 renal was 27.9 µM; with HCT-116 colon, 16 µM; in the assay on HOP-62 NSCLC it was greater than 46.8 µM; in the assay with IGROV1 ovarian, 59.3 µM; in the assay on K-562 leukemia, 37.5 µM; in the assay on LOX IMVI melanoma, 16.8 µM. For the same molecule, the TGI was found to be 18.4 µM with NCI-H522 lung, 14.6 µM with RPMI-8226 leukemia, 10.8 µM with SR leukemia and 14.4 µM with UACC-62 melanoma.
On to `Cc1cc(S(N)(=O)=O)c(S/C(=N\NS(=O)(=O)c2ccccc2)c2ccc(Cl)c(Cl)c2)cc1Cl`, for which the GI50 in the assay on 786-0 renal was 54.9 µM; in the assay with HCT-116 colon, 38 µM; with HOP-62 NSCLC, 63.5 µM; in the assay on IGROV1 ovarian it was 44 µM; in the assay with K-562 leukemia, 32.9 µM; in the assay with LOX IMVI melanoma, 36.1 µM. Further, the GI50 is 89 µM in the assay with NCI-H522 lung, 28.8 µM in the assay on RPMI-8226 leukemia, 27.9 µM in the assay on SR leukemia and 34.7 µM in the assay with UACC-62 melanoma. Moreover, the TGI with 786-0 renal, in the assay on HCT-116 colon, with HOP-62 NSCLC, with IGROV1 ovarian, in the assay with K-562 leukemia and in the assay with LOX IMVI melanoma was greater than 100 µM each time. Also, the TGI in the assay on NCI-H522 lung, with RPMI-8226 leukemia, with SR leukemia and in the assay on UACC-62 melanoma was greater than 100 µM throughout.
On to `N#CC1=C(N)Oc2c(sc3c(Br)cccc23)C1c1ccc(F)cc1` (centres undefined), for which the GI50 with 786-0 renal is 0.525 µM; with HCT-116 colon, 0.409 µM; in the assay on HOP-62 NSCLC, 0.354 µM; with IGROV1 ovarian, 0.605 µM; in the assay with K-562 leukemia it was 0.275 µM; with LOX IMVI melanoma, 0.695 µM. Also, the GI50 with NCI-H522 lung was 0.0838 µM; in the assay with RPMI-8226 leukemia, 0.482 µM; with SR leukemia, 0.241 µM; with UACC-62 melanoma it was 0.512 µM. Besides, the TGI was found to be 14.2 µM in the assay with 786-0 renal; 12.3 µM with HCT-116 colon; 17.9 µM with HOP-62 NSCLC; 21 µM in the assay on IGROV1 ovarian; 23.9 µM in the assay with K-562 leukemia; 15.2 µM in the assay on LOX IMVI melanoma. In addition, the TGI in the assay on NCI-H522 lung worked out at 13.7 µM; in the assay with RPMI-8226 leukemia it was 19.7 µM; with SR leukemia, 11.9 µM; in the assay with UACC-62 melanoma, 23.5 µM.
For the molecule `C=C1c2ccccc2N(S(=O)(=O)c2ccc(C)cc2)C12CCCCC2`, the TGI in the assay with 786-0 renal, in the assay on HCT-116 colon, in the assay on HOP-62 NSCLC, with IGROV1 ovarian, in the assay on K-562 leukemia and with LOX IMVI melanoma was greater than 100 µM in each case. For the same molecule, the TGI in the assay with NCI-H522 lung, in the assay with RPMI-8226 leukemia, in the assay with SR leukemia and in the assay on UACC-62 melanoma was greater than 100 µM each time.
In the case of `CCn1c(-c2nonc2N)nc2c(C#CC(C)(C)O)ncc(OC[C@@H]3CCCN3)c21`, the GI50 was 2.45 µM in the assay on 786-0 renal; 5.34 µM in the assay with HCT-116 colon; 7.07 µM in the assay with HOP-62 NSCLC; 0.676 µM in the assay on IGROV1 ovarian; 9 µM in the assay on K-562 leukemia; 5.5 µM in the assay on LOX IMVI melanoma. For the same molecule, the GI50 in the assay with NCI-H522 lung was 3.1 µM; in the assay on RPMI-8226 leukemia, 24.8 µM; in the assay on SR leukemia it was 8.19 µM; in the assay with UACC-62 melanoma, 7.2 µM. The TGI in the assay on 786-0 renal was greater than 25 µM; in the assay on HCT-116 colon, 20.2 µM; in the assay on HOP-62 NSCLC, 24.9 µM; in the assay on IGROV1 ovarian, greater than 25 µM; in the assay with K-562 leukemia it was greater than 25 µM; in the assay with LOX IMVI melanoma it was greater than 19.4 µM. Besides, the TGI is 6.71 µM in the assay with NCI-H522 lung, greater than 25 µM with RPMI-8226 leukemia, greater than 20.2 µM in the assay with SR leukemia and greater than 25 µM in the assay on UACC-62 melanoma.
With `C/C(N=NC(=S)N1CCCCCC1)=C1\C=CC=CN1O`, the TGI with 786-0 renal was greater than 49.9 µM; in the assay on HCT-116 colon, greater than 100 µM; with HOP-62 NSCLC, greater than 20.5 µM; in the assay on IGROV1 ovarian it was greater than 53.8 µM; with K-562 leukemia it was greater than 51.3 µM; in the assay with LOX IMVI melanoma it was greater than 56.3 µM. Further, the total growth inhibition concentration (TGI) in the assay on NCI-H522 lung was 7.1 µM; in the assay with RPMI-8226 leukemia it was 11.1 µM; in the assay on SR leukemia, greater than 100 µM; in the assay with UACC-62 melanoma it was 24.6 µM.
Turning to `Oc1cccc(-c2nc(N3CCOCC3)c3oc4ncccc4c3n2)c1`, the GI50 in the assay with 786-0 renal is 0.231 µM and 0.246 µM; in the assay on HCT-116 colon it was 0.53 µM and 0.426 µM; with HOP-62 NSCLC it was 0.234 µM and 0.227 µM; in the assay on IGROV1 ovarian it was 0.327 µM and 0.425 µM; with K-562 leukemia it was 1.35 µM and 2.18 µM; with LOX IMVI melanoma, 0.158 µM and 0.151 µM. Moreover, the 50% growth inhibitory concentration (GI50) is 0.0654 µM and 0.0819 µM in the assay with NCI-H522 lung; 0.237 µM and 0.298 µM in the assay on RPMI-8226 leukemia; 0.244 µM with SR leukemia; 1.05 µM and 0.471 µM with UACC-62 melanoma. For the same molecule, the TGI is 1.67 µM and 1.28 µM with 786-0 renal; greater than 100 µM with HCT-116 colon; 3.7 µM and 5.53 µM in the assay on HOP-62 NSCLC; 1.47 µM and 2.23 µM in the assay on IGROV1 ovarian; greater than 100 µM in the assay on K-562 leukemia; 2.33 µM and 3.02 µM with LOX IMVI melanoma. Besides, the TGI is 0.666 µM and 4.67 µM with NCI-H522 lung; greater than 38.3 µM in the assay on RPMI-8226 leukemia; 7.42 µM in the assay with SR leukemia; 3.03 µM and 1.64 µM in the assay on UACC-62 melanoma.
Turning to `CCOc1cccc(/C=N/NC(=O)Cc2ccc(Nc3ccnc(C(F)(F)F)c3)cc2)c1O`, the GI50 in the assay with 786-0 renal is 2.85 µM; in the assay on HCT-116 colon, 1.2 µM; with HOP-62 NSCLC it was 2.28 µM; in the assay with IGROV1 ovarian it was 2.27 µM; in the assay on K-562 leukemia, 2.25 µM; in the assay on LOX IMVI melanoma, 1.49 µM. Further, the GI50 with NCI-H522 lung is 4.76 µM; with RPMI-8226 leukemia it was 0.519 µM; with SR leukemia it was 0.316 µM; with UACC-62 melanoma, 1.64 µM. For the same molecule, the TGI in the assay on 786-0 renal was 74.9 µM; in the assay on HCT-116 colon it was 19.3 µM; in the assay on HOP-62 NSCLC, 30.8 µM; in the assay on IGROV1 ovarian, greater than 100 µM; in the assay on K-562 leukemia, 15 µM; in the assay with LOX IMVI melanoma, greater than 100 µM. The TGI with NCI-H522 lung was 33.2 µM; in the assay with RPMI-8226 leukemia it was 17.4 µM; in the assay with SR leukemia, 10.8 µM; with UACC-62 melanoma, 14.7 µM.
Turning to `O=C1c2c(O)ccc(O)c2C(=O)c2c(NCCNCCO)ccc(NCCNCCO)c21`, the TGI in the assay with 786-0 renal was 0.13 µM and 0.299 µM and 0.584 µM; with HCT-116 colon, 0.327 µM and 1.23 µM and 0.858 µM; in the assay on HOP-62 NSCLC, 0.122 µM and 0.0851 µM and 0.204 µM; in the assay with IGROV1 ovarian, 1.41 µM and 3.13 µM and 2.21 µM; with K-562 leukemia, 1.71 µM and 1.78 µM; with LOX IMVI melanoma, 0.191 µM and 0.571 µM and 0.706 µM. The concentration for total growth inhibition (TGI) was 0.101 µM and 0.0831 µM and 0.574 µM in the assay with NCI-H522 lung; 1.15 µM and 6.39 µM and 3.55 µM with RPMI-8226 leukemia; 0.102 µM and 0.389 µM and 0.865 µM with SR leukemia; 0.218 µM and 0.756 µM and 0.595 µM in the assay with UACC-62 melanoma. The GI50 was 0.0451 µM in the assay with HCT-116 colon; 0.142 µM with K-562 leukemia; 0.0232 µM and 0.00969 µM and 0.0544 µM with NCI-H522 lung; less than 0.005 µM in the assay on SR leukemia.
For `N#Cc1c(-c2ccc(Cl)cc2)csc1NC(=O)Nc1cccc(C(F)(F)F)c1`, the GI50 is 2 µM in the assay with 786-0 renal; 2.33 µM with HCT-116 colon; 2.33 µM in the assay on HOP-62 NSCLC; 3.51 µM in the assay on IGROV1 ovarian; 2.97 µM with K-562 leukemia; 2.64 µM in the assay on LOX IMVI melanoma. Further, the GI50 in the assay on NCI-H522 lung was 1.65 µM; with RPMI-8226 leukemia, 1.84 µM; in the assay with SR leukemia it was 2.41 µM; in the assay with UACC-62 melanoma, 2.92 µM. Further, the concentration for total growth inhibition (TGI) amounted to 4.85 µM in the assay on 786-0 renal; 8.44 µM in the assay on HCT-116 colon; 8.04 µM in the assay on HOP-62 NSCLC; 14.2 µM with IGROV1 ovarian; 12.2 µM with K-562 leukemia; 9.48 µM with LOX IMVI melanoma. Besides, the TGI with NCI-H522 lung was 5.99 µM; in the assay on RPMI-8226 leukemia it was 7 µM; with SR leukemia, 8.41 µM; with UACC-62 melanoma, 12 µM.
In the case of `COc1ccc(-c2nn(-c3cccc(Cl)c3)cc2-c2cc(-c3cccs3)no2)cc1`, the GI50 is 3.39 µM with 786-0 renal; 3.03 µM with HCT-116 colon; 13.9 µM in the assay with HOP-62 NSCLC; 4 µM in the assay on IGROV1 ovarian; 3.43 µM in the assay on K-562 leukemia; 3.04 µM with LOX IMVI melanoma. The GI50 with NCI-H522 lung is 4.27 µM; with RPMI-8226 leukemia it was 5.33 µM; in the assay on SR leukemia, 3.03 µM; in the assay on UACC-62 melanoma it was 3.55 µM. Moreover, the concentration for total growth inhibition (TGI) with 786-0 renal was greater than 100 µM; with HCT-116 colon it was 12.7 µM; in the assay with HOP-62 NSCLC, 28.1 µM; in the assay on IGROV1 ovarian, 16.2 µM; in the assay on K-562 leukemia, greater than 100 µM; with LOX IMVI melanoma, 10.9 µM. The concentration for total growth inhibition (TGI) was found to be 18.4 µM in the assay on NCI-H522 lung, 61.9 µM with RPMI-8226 leukemia, 12.1 µM in the assay on SR leukemia and 20 µM with UACC-62 melanoma.
